# Reference: patent publication US20100144733A1, “Compounds, compositions and methods comprising heteroaromatic derivatives” (Institute for OneWorld Health, priority 2008, published 2010)
# pIC50: −log10 of the molar value.
# Biological target: T1, CFTR (Homo sapiens, UniProt P13569)
# T1 construct: endogenous in cells; host or cells: T84 human colonic cells (ECACC)
# Test: T84 assay (FLIPR membrane potential dye, forskolin/IBMX-stimulated CFTR channel activity)
# Type: cell-based
# Conditions: imidazole and triazole-containing compounds (Tables 13, 14, 14′), read-out: IC50 (μM) (T84 assay)
# Protocol: (§1) For example, Human colonic T84 cells can be acquired from the European Collection of Cell Cultures (ECACC) and grown in standard culture conditions as described by the supplier. On the day before assay 25,000 T84 cells per well are plated into standard black walled, clear bottom 384-well assay plates in standard growth medium consisting of DMEM:F12 with 10% FBS and incubated overnight. On the day of the assay the plates are washed using a standard assay buffer (HBSS with 10 mM Hepes) and incubated for 15 minutes in serum free cell culture medium before the addition of a commercially available membrane potential sensitive fluorescent dye (FLIPRRed membrane potential dye, Molecular Devices Corporation). T84 cells are incubated with the FLIPRRed membrane potential dye for 45 minutes in the presence and absence of test compound before being transferred to a commercially available fluorescence imaging plate reader (FLIPR384, Molecular Devices Corporation). Fluorescence levels are monitored continuously every second for 150 seconds; after an initial 10 second baseline, CFTR channel activity is stimulated through the addition of 10 μM forskolin in the presence of 100 μM of the phosphodiesterase inhibitor iso-butyl-methylxanthine (IBMX). Addition of the forskolin leads to the activation of intracellular adenylyl cylase 1, elevating cAMP levels and results in the phosphorylation and opening of CFTR anion channels. CFTR channel opening causes chloride ion efflux and subsequent depolarization of the cells, which is measured by an increase in fluorescence. CFTR inihibitor compounds prevent cell depolarization and the associatred increase in fluorescence.
# as §1, with “Human colonic” for “For example, Human colonic”, “T84 cells are acquired from” for “T84 cells can be acquired from”, “(ECACC) and are grown in” for “(ECACC) and grown in”, “10 μM Forskolin in the” for “10 μM forskolin in the”, “fluorescence. CFTR inhibitor compounds prevent” for “fluorescence. CFTR inihibitor compounds prevent”, “and the associated increase in” for “and the associatred increase in”
# T1 sequence (P13569 whole entry): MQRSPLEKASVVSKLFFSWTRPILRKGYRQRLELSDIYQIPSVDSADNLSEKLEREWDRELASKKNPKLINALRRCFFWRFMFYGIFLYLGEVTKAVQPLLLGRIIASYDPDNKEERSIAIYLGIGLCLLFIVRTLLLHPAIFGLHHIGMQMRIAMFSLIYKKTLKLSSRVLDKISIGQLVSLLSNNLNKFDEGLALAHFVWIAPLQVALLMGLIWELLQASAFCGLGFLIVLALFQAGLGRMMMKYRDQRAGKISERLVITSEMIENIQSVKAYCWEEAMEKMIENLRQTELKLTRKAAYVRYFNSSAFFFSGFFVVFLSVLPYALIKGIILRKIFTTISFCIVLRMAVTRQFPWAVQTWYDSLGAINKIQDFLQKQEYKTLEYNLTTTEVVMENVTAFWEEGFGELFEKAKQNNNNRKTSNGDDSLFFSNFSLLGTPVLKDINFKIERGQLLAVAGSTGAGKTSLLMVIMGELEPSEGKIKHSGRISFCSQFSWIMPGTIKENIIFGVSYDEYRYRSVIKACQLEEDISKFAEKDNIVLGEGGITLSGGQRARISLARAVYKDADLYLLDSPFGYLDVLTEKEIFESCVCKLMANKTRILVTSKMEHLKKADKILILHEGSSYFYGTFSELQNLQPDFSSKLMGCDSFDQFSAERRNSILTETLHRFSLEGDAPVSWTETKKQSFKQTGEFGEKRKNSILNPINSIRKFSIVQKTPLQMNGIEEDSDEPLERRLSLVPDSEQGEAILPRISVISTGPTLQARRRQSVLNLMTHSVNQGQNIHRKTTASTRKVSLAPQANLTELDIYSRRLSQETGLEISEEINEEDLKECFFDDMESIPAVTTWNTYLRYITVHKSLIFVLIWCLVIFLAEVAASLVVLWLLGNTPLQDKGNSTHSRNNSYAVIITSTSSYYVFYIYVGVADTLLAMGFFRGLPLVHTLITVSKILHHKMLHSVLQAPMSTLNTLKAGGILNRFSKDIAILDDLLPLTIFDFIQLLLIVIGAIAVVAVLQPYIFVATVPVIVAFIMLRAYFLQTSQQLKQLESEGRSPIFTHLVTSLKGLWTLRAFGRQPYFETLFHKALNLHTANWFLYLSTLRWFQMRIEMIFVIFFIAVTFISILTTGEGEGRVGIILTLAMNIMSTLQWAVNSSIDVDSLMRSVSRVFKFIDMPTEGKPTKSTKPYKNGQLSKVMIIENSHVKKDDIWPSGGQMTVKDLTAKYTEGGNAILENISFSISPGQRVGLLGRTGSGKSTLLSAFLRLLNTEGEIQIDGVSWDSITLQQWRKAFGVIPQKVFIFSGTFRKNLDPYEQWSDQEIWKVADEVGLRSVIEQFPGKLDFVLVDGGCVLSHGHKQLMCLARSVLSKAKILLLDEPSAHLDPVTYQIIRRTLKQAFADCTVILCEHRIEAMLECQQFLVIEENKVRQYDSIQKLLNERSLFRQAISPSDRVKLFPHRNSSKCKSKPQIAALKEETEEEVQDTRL
row,IC50,SMILES
1,7.52 µM,"O=C(NCc1ccc(F)c(C(F)(F)F)c1)c1ncn(-c2cc(Cl)c(O)c(Cl)c2)n1 [29i, 1-(3,5-dichloro-4-hydroxyphenyl)-N-(4-fluoro-3-(trifluoromethyl)benzyl)-1H-1,2,4-triazole-3-carboxamide]"
2,16.8 µM,"CC(C)Oc1ccc(CNC(=O)c2ncn(-c3cc(Cl)c(O)c(Cl)c3)n2)cc1 [28i, 1-(3,5-dichloro-4-hydroxyphenyl)-N-(4-isopropoxybenzyl)-1H-1,2,4-triazole-3-carboxamide]"
3,6.81 µM,"O=C(c1ncn(-c2cc(Cl)c(O)c(Cl)c2)n1)N(Cc1ccccc1)Cc1cccc(OC(F)(F)F)c1 [84i, N-benzyl-1-(3,5-dichloro-4-hydroxyphenyl)-N-(3-(trifluoromethoxy)benzyl)-1H-1,2,4-triazole-3-carboxamide]"
4,5.11 µM,"COCCOCCOCCOCCON(Cc1ccc(Oc2ccccc2)cc1)C(=O)c1ncn(-c2cc(Cl)c(O)c(Cl)c2)n1 [122i, N-(2,5,8,11-tetraoxatridecan-13-yloxy)-1-(3,5-dichloro-4-hydroxyphenyl)-N-(4-phenoxybenzyl)-1H-1,2,4-triazole-3-carboxamide]"

# Same assay, conditions: isoxazole-containing compounds (Table 10, 10′, 11, 11′), read-out: IC50
row,pIC50,SMILES
1,5.27,"CN(Cc1ccc(Cl)cc1)C(=O)c1cc(-c2cc(Br)c(O)c(Br)c2)on1 [5g, N-(4-chlorobenzyl)-5-(3,5-dibromo-4-hydroxyphenyl)-N-methylisoxazole-3-carboxamide]"
2,5.12,"CN(Cc1ccccc1)C(=O)c1cc(-c2cc(Br)c(O)c(Br)c2)on1 [1g, N-Benzyl-5-(3,5-dibromo-4-hydroxyphenyl)-N-methylisoxazole-3-carboxamide]"
3,4.97,"CN(Cc1ccc(C(F)(F)F)cc1)C(=O)c1cc(-c2cc(Cl)c(O)c(Cl)c2)on1 [7g, 5-(3,5-dichloro-4-hydroxyphenyl)-N-methyl-N-(4(trifluoromethyl)benzyl)isoxazole-3-carboxamide]"
4,4.85,"COc1ccccc1N1CCN(C(=O)c2cc(-c3cc(Br)c(O)c(Br)c3)on2)CC1 [11g, (5-(3,5-dibromo-4-hydroxyphenyl)isoxazol-3-yl)(4(2-methoxyphenyl)piperazin-1-yl)methanone]"

# Same assay, conditions: oxadiazole-containing compounds (a series), average of at least 2 runs unless annotated n = 1, read-out: IC50
row,SMILES,pIC50
1,"CN(Cc1ccc(-c2cncnc2)cc1)C(=O)c1nc(-c2cc(Cl)c(O)c(Cl)c2)no1 [188a, 3-(3,5-dichloro-4-hydroxyphenyl)-N-methyl-N-(4-(pyrimidin-5-yl)benzyl)-1,2,4-oxadiazole-5-carboxamide]",5.24
2,"CC(C)(C)C(=O)CN(Cc1cccc(C(F)(F)F)c1)C(=O)c1nc(-c2cc(Cl)c(O)c(Cl)c2)no1 [91a, 3-(3,5-dichloro-4-hydroxyphenyl)-N-(3,3-dimethyl-2-oxobutyl)-N-(3-(trifluoromethyl)benzyl)-1,2,4-oxadiazole-5-carboxamide]",5.67
3,"CN(Cc1ccccc1)C(=O)c1nc(-c2cc(Br)c(O)c(Br)c2)no1 [28a, N-benzyl-3-(3,5-dibromo-4-hydroxyphenyl)-N-methyl-1,2,4-oxadiazole-5-carboxamide]",4.81
4,"O=C(Nc1ccc(Oc2ccc(C(F)(F)F)cc2)cc1)c1nc(-c2cc(Br)c(O)c(Br)c2)no1 [34a, 3-(3,5-dibromo-4-hydroxyphenyl)-N-(4-(4-(trifluoromethyl)phenoxy)phenyl)-1,2,4-oxadiazole-5-carboxamide]",4.74
5,"CC(C)(C)C(=O)CN(Cc1ccc(Oc2ccccc2)cc1)C(=O)c1nc(-c2cc(Cl)c(O)c(Cl)c2)no1 [165a, 3-(3,5-dichloro-4-hydroxyphenyl)-N-(3,3-dimethyl-2-oxobutyl)-N-(4-phenoxybenzyl)-1,2,4-oxadiazole-5-carboxamide]",4.94

# Further lines, results first:
row,pIC50,SMILES
1,5.20,"CCc1ccc(CN(C)C(=O)c2nc(-c3cc(Cl)c(O)c(Cl)c3)no2)cc1 [150a, 3-(3,5-dichloro-4-hydroxyphenyl)-N-(4-ethylbenzyl)-N-methyl-1,2,4-oxadiazole-5-carboxamide]"
2,5.17,"CC(NC(=O)c1nc(-c2cc(Cl)c(O)c(Cl)c2)no1)c1ccc(Cl)cc1 (stereo not drawn) [149a, N-(1-(4-chlorophenyl)ethyl)-3-(3,5-dichloro-4-hydroxyphenyl)-1,2,4-oxadiazole-5-carboxamide]"
3,4.76,"O=C(NCc1ccc(Oc2ccccc2)cc1)c1noc(-c2cc(Cl)c(O)c(Cl)c2)n1 [79a, 5-(3,5-dichloro-4-hydroxyphenyl)-N-(4-phenoxybenzyl)-1,2,4-oxadiazole-3-carboxamide]"
4,5.14,"O=C(NCc1ccccc1Cl)c1noc(-c2cc(Cl)c(O)c(Cl)c2)n1 [83a, N-(2-chlorobenzyl)-5-(3,5-dichloro-4-hydroxyphenyl)-1,2,4-oxadiazole-3-carboxamide]"
5,5.29,"CN(Cc1cccc(C(F)(F)F)c1)C(=O)c1nc(-c2cc(Cl)c(O)c(Cl)c2)no1 [139a, 3-(3,5-dichloro-4-hydroxyphenyl)-N-methyl-N-(3-(trifluoromethyl)benzyl)-1,2,4-oxadiazole-5-carboxamide]"
6,4.89,"O=C(NCc1ccc(Cl)cc1)c1nc(-c2cc(Cl)c(O)c(Cl)c2)no1 [128a, N-(4-chlorobenzyl)-3-(3,5-dichloro-4-hydroxyphenyl)-1,2,4-oxadiazole-5-carboxamide]"
7,4.76,"CN(C)c1ccc(CNC(=O)c2noc(-c3cc(Cl)c(O)c(Cl)c3)n2)cc1 [158a, 5-(3,5-dichloro-4-hydroxyphenyl)-N-(4-(dimethylamino)benzyl)-1,2,4-oxadiazole-3-carboxamide]"
8,4.75,"CN(C)c1ccc(CNC(=O)c2nc(-c3cc(Cl)c(O)c(Cl)c3)no2)cc1 [133a, 3-(3,5-dichloro-4-hydroxyphenyl)-N-(4-(dimethylamino)benzyl)-1,2,4-oxadiazole-5-carboxamide]"
9,4.74,"O=C(NCc1cccc(F)c1)c1noc(-c2cc(Cl)c(O)c(Cl)c2)n1 [116a, 5-(3,5-dichloro-4-hydroxyphenyl)-N-(3-fluorobenzyl)-1,2,4-oxadiazole-3-carboxamide]"
10,4.72,"O=C(O)COc1c(Cl)cc(-c2nc(C(=O)NCc3ccc(Oc4ccccc4)cc3)no2)cc1Cl [107a, 2-(2,6-dichloro-4-(3-(4-phenoxybenzylcarbamoyl)-1,2,4-oxadiazol-5-yl)phenoxy)acetic acid]"
11,5.32,"O=C(NCc1ccc(F)c(C(F)(F)F)c1)c1noc(-c2cc(Cl)c(O)c(Cl)c2)n1 [159a, 5-(3,5-dichloro-4-hydroxyphenyl)-N-(4-fluoro-3-(trifluoromethyl)benzyl)-1,2,4-oxadiazole-3-carboxamide]"
12,5.10,"O=C(NCc1ccc(F)cc1F)c1noc(-c2cc(Cl)c(O)c(Cl)c2)n1 [114a, 5-(3,5-dichloro-4-hydroxyphenyl)-N-(2,4-difluorobenzyl)-1,2,4-oxadiazole-3-carboxamide]"
13,5.05,"COc1cc(Oc2ccc(CNC(=O)c3nc(-c4cc(Cl)c(O)c(Cl)c4)no3)cc2)ccc1F [191a, 3-(3,5-dichloro-4-hydroxyphenyl)-N-(4-(4-fluoro-3-methoxyphenoxy)benzyl)-1,2,4-oxadiazole-5-carboxamide]"
14,4.62,"O=C(c1noc(-c2cc(Cl)c(O)c(Cl)c2)n1)N(CCNCc1ccccc1)Cc1ccccc1 [119a, N-benzyl-N-(2-(benzylamino)ethyl)-5-(3,5-dichloro-4-hydroxyphenyl)-1,2,4-oxadiazole-3-carboxamide]"

# Same assay, conditions: thiadiazole-containing compounds (Table 12), read-out: IC50
row,pIC50,SMILES
1,5.06,"CN(CCO)C(=O)COc1c(Cl)cc(-c2nnc(CN3c4ccccc4Sc4ccccc43)s2)cc1Cl [8h, 2-(4-(5-((10H-phenothiazin-10-yl)methyl)-1,3,4-thiadiazol-2-yl)-2,6-dichlorophenoxy)-N-(2-hydroxyethyl)-N-methylacetamide]"
2,5.01,"O=C(COc1c(Cl)cc(-c2nnc(CN3c4ccccc4Sc4ccccc43)s2)cc1Cl)N(CCO)CCO [9h, 2-(4-(5-((10H-phenothiazin-10-yl)methyl)-1,3,4-thiadiazol-2-yl)-2,6-dichlorophenoxy)-N,N-bis(2-hydroxyethyl)acetamide]"

# Same assay, conditions: triazine-containing compounds (Table 8 and 8′), read-out: IC50
row,pIC50,SMILES
1,5.83,"Oc1c(Br)cc(-c2cnc(OCc3cccc(OCc4ccccc4)c3)nn2)cc1Br [89e, 4-(3-(3-(benzyloxy)benzyloxy)-1,2,4-triazin-6-yl)-2,6-dibromophenol]"
